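96-well plates; 48 h exposure; 5 concentrations. Endpoints by linear interpolation between flanking doses. Not reached: highest tested concentration assigned. GI50 is the concentration that inhibits growth by half. The concentration for full growth arrest is given as TGI.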
Legend:
Assay in all cases: growth of human tumour cells (NCI), 48 h
T-47D breast = test system: T-47D breast
CCRF-CEM leukemia = test system: CCRF-CEM leukemia
NCI/ADR-RES ovarian = test system: NCI/ADR-RES ovarian
EKVX NSCLC = test system: EKVX NSCLC
UACC-62 melanoma = test system: UACC-62 melanoma
LOX IMVI melanoma = test system: LOX IMVI melanoma
U251 CNS = test system: U251 CNS
SK-OV-3 ovarian = test system: SK-OV-3 ovarian
MDA-MB-231 breast = test system: MDA-MB-231 breast
SK-MEL-5 melanoma = test system: SK-MEL-5 melanoma

Row | SMILES | TGI (T-47D breast) [µM] | TGI (CCRF-CEM leukemia) [µM] | TGI (NCI/ADR-RES ovarian) [µM] | TGI (EKVX NSCLC) [µM] | TGI (UACC-62 melanoma) [µM] | TGI (LOX IMVI melanoma) [µM] | TGI (U251 CNS) [µM] | TGI (SK-OV-3 ovarian) [µM] | TGI (MDA-MB-231 breast) [µM] | TGI (SK-MEL-5 melanoma) [µM] | GI50 (T-47D breast) [µM] | GI50 (CCRF-CEM leukemia) [µM] | GI50 (NCI/ADR-RES ovarian) [µM] | GI50 (UACC-62 melanoma) [µM] | GI50 (LOX IMVI melanoma) [µM] | GI50 (U251 CNS) [µM] | GI50 (SK-OV-3 ovarian) [µM] | GI50 (MDA-MB-231 breast) [µM] | GI50 (SK-MEL-5 melanoma) [µM] | GI50 (EKVX NSCLC) [µM]
1 | OCC1C(OCc2ccccc2)C(OCc2ccccc2)C(OCc2ccccc2)CN1Cc1ccccc1 (stereo unspecified) | > 100 | > 100 | > 100 | > 100 | > 100 | > 100 | > 100 | > 100 | > 100 |  |  |  |  |  |  |  |  |  |  | 
2 | CC1=N/C(=C/c2ccc3c(c2)OCO3)C(=O)O1 |  | > 100 |  | > 100 | > 100 | > 100 | > 100 | > 100 |  | > 100 |  |  |  |  |  |  |  |  |  | 
3 | NNC(=O)C(=O)N/N=C(\CCCC(=O)Nc1ccc(Cl)cc1)CC(=O)c1ccc(F)cc1 |  | > 100 |  | > 100 | 78.5 | > 100 | > 100 |  |  | > 100 |  |  |  |  |  |  |  |  |  | 
4 | C=CCC1(CN(C)C)CC/C(=C\c2ccc(OC)cc2)C1=O (stereo unspecified) |  | > 100 |  | > 100 | > 100 | > 100 | > 100 |  |  | > 100 |  |  |  |  |  |  |  |  |  | 
5 | CCOC(OC(C)=O)[C@@H]1C=C[C@H](C)N(c2ccc([N+](=O)[O-])cc2)O1 (stereo partly specified) |  | > 21.8 |  | 39 | 7.55 | 4.12 | 9 | 35.3 |  | 13.4 |  |  |  |  |  |  |  |  |  | 
6 | O=C1NC(=C(Cl)Cl)/C(=N/S(=O)(=O)N2CCCCC2)N1 | 64.5 | 4.92 | 29.2 |  | 3.04 | 3.58 | 3.12 | 28.8 | 3.42 |  | 5.94 | 2.19 | 3.87 | 1.61 | 1.86 | 1.71 | 15.4 | 1.85 |  | 
7 | O=C(CSc1nc2c(n1Nc1ccccc1)-c1ccccc1SC2)Nc1nc(-c2ccc(Cl)cc2)cs1 | > 100 |  | > 100 | > 100 | > 100 | > 100 | 88.2 | 29.5 | > 100 | > 100 | 26.6 |  | 25.5 | 13.5 | > 100 | 9.91 | 11.8 | 33.3 | > 100 | 23.6
8 | CCOC(=O)Cc1c(C)c2cc(C(=O)c3ccccc3)c(O)cc2oc1=O | 88.3 | > 100 | 73.3 | 88.9 | > 100 | > 100 | 74.2 |  | 72 | 40 |  |  |  |  |  |  |  |  |  | 
9 | O=C(/C=C\c1ccccc1O)c1ccc(O)cc1O |  | > 100 |  | > 100 | > 100 | > 100 | > 100 | > 100 |  | > 100 |  |  |  |  |  |  |  |  |  | 
10 | Cc1ccc(C)c(N2C(=O)C(=O)C(c3nc4ccccc4s3)/C(=N/N)C2=O)c1 (stereo unspecified) |  | > 100 |  | > 100 | > 100 | > 100 | > 100 | > 100 |  | > 100 |  |  |  |  |  |  |  |  |  | 
11 | CCN(CC)CCCNc1nccc2c(C)c3c(cc12)c1cnccc1n3C |  | 0.415 |  | 1.52 | 2.25 | 0.268 | 1.77 | 2.73 |  | 1.82 |  |  |  |  |  |  |  |  |  | 
12 | CCC[C@H]1O[C@@H]2CC(=O)O[C@@H]2C2=C1C(=O)C=CC2=O |  | > 47.9 |  | > 62.4 | 32.3 | 39.8 | > 53.7 | > 56.3 |  | 36 |  |  |  |  |  |  |  |  |  | 
13 | COC1CCC(OS(C)(=O)=O)C(CO)O1 (stereo unspecified) |  | > 100 |  | > 100 | > 100 | > 100 | > 100 | > 100 |  |  |  |  |  |  |  |  |  |  |  | 
14 | Cc1c(C)c2ccc3oc4ccccc4c3c2oc1=O |  | > 100 |  | > 100 | > 100 | > 100 | > 100 | > 100 |  | > 100 |  |  |  |  |  |  |  |  |  | 
15 | COc1cc(/C=C/c2cc(/C=C/c3ccc(O)c(OC)c3)n(C(=O)c3ccc(Cl)cc3)n2)ccc1O | 5.86 | > 100 | 18 |  | 10.1 |  | 11.6 | 4.35 | 19.6 | 11.6 | 1.92 | 1.64 | 2.9 | 2.72 |  | 2.94 | 1.83 | 2.84 | 2.27 | 
16 | C/C(=N\N=C(N)N)C(CN1CCCCC1)C(c1ccccc1)c1c(O)c2ccccc2oc1=O (stereo unspecified) |  | > 100 |  | > 100 | > 100 | > 100 |  | > 100 |  |  |  |  |  |  |  |  |  |  |  | 
17 | CCOC(=O)c1cc(C(=O)c2ccc(OC)cc2)n2ccc(/C=C/c3cc[n+](CC(=O)c4ccc(OC)cc4)cc3)cc12 | 4.43 |  | > 100 | > 100 |  | 3.66 | 4.57 | > 100 | 3.22 |  | 1.91 |  | > 100 |  | 1.51 | 1.68 | > 100 | 1.58 |  | 2.8
18 | COc1cc2cc(OC(C)=O)c3cc4c(cc3c2c(OC)c1OC)OCO4 |  | > 100 |  | > 100 |  | > 100 | > 100 | > 100 |  | > 100 |  |  |  |  |  |  |  |  |  | 
19 | O=C1C=C(Nc2ccc(Cl)cc2Cl)c2ccccc2C1=O |  | 85 |  | > 100 | 32.8 |  | > 100 | > 100 |  |  |  |  |  |  |  |  |  |  |  | 
20 | OC(CNc1ccnc2cc(Cl)ccc12)CNc1ccnc2cc(Cl)ccc12 |  |  | > 100 | 6.04 | 3.37 |  |  | 3.89 | 3.44 | 3.02 |  |  | > 100 | 1.7 |  |  | 1.92 | 1.73 | 1.58 | 2.22
21 | NS(=O)(=O)OC[C@H]1C[C@@H](Nc2ccnc3cc(-c4cccc(SC(F)(F)F)c4)nn23)[C@H](O)[C@@H]1O |  | 13.2 |  | 0.104 | 0.195 |  | 0.0339 | 0.0769 | 0.0867 | 0.0278 |  | < 0.0181 |  | 0.0325 |  | 0.016 | 0.0271 | 0.0195 | 0.0133 | 0.028

Source: PubChem BioAssay (NCI)
